Measured values reported in patent US7728036B2, “Methods for delivery of catecholic butanes for treatment of tumors” (priority 2003, dated 2010).

Tests used:
[1] = mouse, in vivo
Method: M4N Tissue Distribution Studies Using ^3H-M4N. Harlan ICR mice or C3 cell-induced tumor-bearing C57bl/6 mice were injected via tail vein or intraperitoneally with 100 μL of Cremaphor-ethanol based solvent containing 100 μCi of tritiated M4N and 60 mM of cold M4N. At the specified time post-injection, the mice were sacrificed, the organs and blood were collected, weighed, then dissolved overnight in 4 M guanidine isothiocyanate (GITC). The insoluble pellet was then further extracted with EtOH. Tritium content of both the GITC extract and the EtOH extract was measured on a Packard scintillation counter and the quantity of M4N in each organ was calculated based on the specific activity of the inoculum.
To determine the distribution of M4N in tissues over time following a single application, and also to assess the ability to deliver M4N to a distant tumor, six C3 cell-induced tumor bearing mice (A-F) were treated i.p. with ^3H-M4N as described above. At 4 hours, 6 hours, 18 hours, and 6 days post-injection, the quantities of ^3H-M4N in various tissues and the tumors were measured.

[2] = Toxicokinetic analysis of M4N serum concentration in beagle dogs; settings: dog, in vivo
Method: Blood samples from the CET group animals were collected via the jugular vein on Study Day (SD) 1, SD 3, SD 6, and SD 8 at the following timepoints: predose, 0.25, 0.5, 1, 2, 4, 8, and 16 hours following the completion of the approximate 4-hour infusion.
Blood samples from the DMSO group animals were collected via the cephalic vein on SD 1, SD 3, SD 6, and SD 8 at the following timepoints: predose, 0.25, 0.5, 1, 2, 4, 8, and 16 hours following the final injection dose of M4N-DMSO.
Blood samples collected from both groups of animals were processed for plasma and serum for TK analysis.
The plasma and serum samples were sent to MedTox Laboratories, the Sponsor's designated laboratory for TK analysis. TK analysis of M4N plasma and serum concentration-time data was performed using a validated method (M200406) by MedTox Laboratories and analyzed by noncompartmental methods to obtain estimates of toxicokinetic parameters (where data allow), but not necessarily limited to, Cmax, Tmax and AUC.

[3] = system: Hep3B hepatocellular carcinoma cells; assay: Xenograft assay of human tumors in athymic nude mice, Hep3B; assay type: in vivo
From the text: (§1) Xenograft Assay of Human Tumors.
(§2) Control mice received vehicle only.

[4] = Tissue distribution after long-term (14 weeks) oral feeding of M4N (HPLC); assay type: in vivo, mice; settings: 14 weeks continuous oral feeding of M4N food balls
Method: Tissue Distribution and Toxicity Analysis Following Short-Term and Long-Term Oral Feeding. For short-term feeding experiments, 30 mg of M4N dissolved in 300 μL castor oil was orally administered to each of 6 mice. At 2 h, 4 h, and 8 h post-administration time points, 2 mice were sacrificed, the organs and blood were collected, and the M4N extracted and quantitated as described below. In long-term feeding experiments, mice were fed food balls consisting of M4N dissolved in corn oil and Basal Mix (Harlan Teklad; Madison, Wis.; Cat. # TD 02273) for 14 weeks. Food balls weighed 9 g and contained 242 mg M4N each. Two mice, one male and one female, were reserved for long-term drug retention studies; and fourteen mice, both male and female, were used for long-term drug toxicity studies. At the end of feeding, mice were sacrificed, the organs and blood were collected, and the M4N extracted and quantitated as described below.
M4N Extraction and HPLC Analysis Following Oral Feeding. Organs and blood were harvested from M4N-fed mice, then frozen overnight at −80° C. Prior to freezing, gastro-intestinal organs (stomach, small intestine, colon) were cut open longitudinally and washed thoroughly with PBS to remove any contents. The following day, organs were cut into small pieces on dry ice with a razor blade, dried in a Speed-vac, then crushed into a rough powder using a mortar and pestle. Samples were extracted overnight in 100% ethanol with shaking. Samples were centrifuged and the supernatant collected. Pellets were extracted two more times in 100% ethanol overnight with shaking. The pooled ethanol extracts were evaporated on bench top for several days, then re-extracted with ethyl acetate, and dried completely in a Speed-vac. The dried samples were then analyzed quantitatively by HPLC and M4N was identified by mass spectroscopy using pure M4N as a standard.
HPLC Quantitation of M4N. Samples from a single mouse at each time point were sent to KP Pharmaceuticals (Bloomington, Ind.) for HPLC analysis. HPLC conditions were described as follows: 35%:0.1% TFA in H2O, 65%=“CAN.” The M4N standard was prepared by diluting 10.01 mg M4N in 100 mL of CAN, then sonicating for 5 min. (2002 ng/injection). The samples were prepared by adding 400 μL EtOH and sonicating for 2 min. or until complete dissolution was achieved. The injection volume for the samples was 100 μL.
The objective of the long-term feeding experiments was to measure the steady state levels of M4N in various mouse organs following continuous oral administration for 14 weeks. Food balls weighing approximately 9 g and containing approximately 280 mg M4N were continually fed to wild-type mice for 14 weeks. A single 9 g food ball is consumed by a single mouse in about 3 days, which translates to […] of M4N consumed or administered daily. […] Between 350 μg and 900 μg M4N per gram tissue was measured in the GI tract organs and the spleen; 15 μg/g to 30 μg/g M4N was measured in the lungs, pancreas, seminal vesicles, blood, and fat; and 5 μg/g to 13 μg/g M4N was measured in the heart, liver, kidneys, and bladder.

[5] = system: human tumor xenografts (MCF-7, Hep3B, HT-29, LNCaP); settings: all four tumor types, of 39 M4N-treated tumors, 21 days
Method: Xenograft Assay of Human Tumors. Athymic nude mice were implanted subcutaneously in their flanks with 2.5×10^6 Hep3B cells, 2×10^6 LNCaP cells, 1×10^7 HT-29 cells, or 2×10^6 MCF-7 cells.
M4N was dissolved in 6% Cremaphor EL, 6% ethanol, 88% saline as described in Loganzo et al. (2003). Mice received a single daily 100 μL i.p. injection containing 2 mg of M4N for 3 weeks. The control mice received an equal volume of the vehicle. Tumors were measured in two perpendicular dimensions (L and W) once every seven days, and the tumor volumes were calculated according to the following formula: V=(L×W/2)^3×π/6. The results from the individual mice were plotted as average tumor volume versus time. Statistical significance of the mean differences in tumor volume was assessed by Student's t-test.
Athymic nude mice were implanted s.c. in each flank with MCF-7 breast adenocarcinoma cells, Hep3B hepatocellular carcinoma cells, HT-29 colorectal carcinoma cells, and LNCaP prostate carcinoma cells. Most mice developed tumors in both flanks, although some developed a single tumor. When tumors attained a mean diameter of 7-8 mm, mice received for three weeks a single daily i.p. injection containing 2 mg of M4N dissolved in 100 uL Cremaphor-ethanol based solvent. Control mice received vehicle only. Tumors were measured in two perpendicular dimensions (L and W) once every seven days, and tumor volumes were calculated according to the formula: V=(L×W/2)^3×π/6.

[6] = system: LNCaP prostate carcinoma cells; assay: Xenograft assay of human tumors in athymic nude mice, LNCaP; assay type: in vivo, mouse
From the text: as §1, §2

[7] = Systemic tissue distribution of 3H-M4N 3 hours after single i.p. or i.v. injection; assay type: in vivo, mice
Method: M4N Tissue Distribution Studies Using ^3H-M4N. […] The insoluble pellet was then further extracted with EtOH.
At 3 hours post-injection, the organs and blood were harvested and weighed, and the M4N was extracted.

[8] = system: MCF-7 breast adenocarcinoma cells; assay: Xenograft assay of human tumors in athymic nude mice, MCF-7; assay type: in vivo
From the text: as §1, §2

[9] = Hep 3B, of 7 M4N-treated tumors, 21 days i.p. treatment
[10] = LNCaP, of 11 M4N-treated tumors, 21 days i.p. treatment
[11] = MCF-7, of 10 M4N-treated tumors, 21 days i.p. treatment

COc1ccc(C[C@@H](C)[C@@H](C)Cc2ccc(OC)c(OC)c2)cc1OC [M4N, meso-1,4-bis(3,4-dimethoxyphenyl)-2,3-dimethylbutane]
M4N tissue levels relative to levels seen at 6 hours [1]: 5-10%
M4N per gram of wet tumor ([1]; ip): 294 ng per gram of wet tumor
Time of peak M4N tissue levels ([1]; ip): approximately 6 hours
Blood levels of M4N achieved with minimal toxicity [2]: up to 14,000 ng/ml
Tumor Volume Increase (%) - 21 Days Treatment, M4N-Treatment ([3]; Hep 3B xenograft, 2 mg M4N i.p. daily for 3 weeks): 113%
Ratio of Mean M4N-Treated Tumor Size to Control Tumor Size ([3]; Hep 3B xenograft, 2 mg M4N i.p. daily, 21 days): 19.3%
Reduction in mean tumor volume versus control ([3]; Hep 3B, after 21 days systemic M4N treatment): 80%
DOTV: number of tumors with decrease in volume from the original tumor volume [3, 9]: 2
IOTV: number of tumors with increase in volume from the original tumor volume [3, 9]: 5
M4N ([4]; Bladder): 6.24 µg/g
M4N ([4]; Blood): 23.13 µg/g
M4N ([4]; Caecum): 440.23 µg/g
M4N ([4]; Fat): 17.41 µg/g
M4N ([4]; Heart): 12.62 µg/g
M4N ([4]; Kidneys): 8.33 µg/g
M4N ([4]; Lg. Intestine): 350.88 µg/g
M4N ([4]; Liver): 5.89 µg/g
M4N ([4]; Lungs): 23.09 µg/g
M4N ([4]; Pancreas): 28.81 µg/g
M4N ([4]; Seminal Vesicles): 16.79 µg/g
M4N ([4]; Small Intestine): 906.27 µg/g
M4N ([4]; Spleen): 302.78 µg/g
M4N ([4]; Stomach): 409.27 µg/g
DOTV: number of tumors with decrease in volume from the original tumor volume [5]: 21
IOTV: number of tumors with increase in volume from the original tumor volume [5]: 18
IOTV: share of tumors with increase in volume [5]: (46%)
Tumor Volume Increase (%) - 21 Days Treatment, M4N-Treatment ([6]; LNCaP xenograft, 2 mg M4N i.p. daily for 3 weeks): 25%
Ratio of Mean M4N-Treated Tumor Size to Control Tumor Size ([6]; LNCaP xenograft, 2 mg M4N i.p. daily, 21 days): 46.3%
Reduction in mean tumor volume versus control ([6]; LNCaP, after 21 days systemic M4N treatment): 53%
DOTV: number of tumors with decrease in volume from the original tumor volume [6, 10]: 9
IOTV: number of tumors with increase in volume from the original tumor volume [6, 10]: 2
Growth of LNCaP xenograft tumors ([6]; systemic oral administration of M4N): effectively suppresses the growth
M4N detected in tissue ([7]; heart or blood, 3 hours post-injection): Little or no M4N
M4N present in tissue ([7]; liver and fat, 3 hours post-injection): Significant quantities
Toxicity of systemic i.p. and i.v. injection ([7]; mice, single injection): no apparent toxicity
Reduction in mean tumor volume versus control ([8]; MCF-7, after 21 days systemic M4N treatment): 74%
DOTV: number of tumors with decrease in volume from the original tumor volume [8, 11]: 7
IOTV: number of tumors with increase in volume from the original tumor volume [8, 11]: 3
Tumor Volume Increase (%) - 21 Days Treatment, M4N-Treatment ([8]; MCF-7 xenograft, 2 mg M4N i.p. daily for 3 weeks): 84%
Ratio of Mean M4N-Treated Tumor Size to Control Tumor Size ([8]; MCF-7 xenograft, 2 mg M4N i.p. daily, 21 days): 25.5%
